In US20220378923A1, “BET DEGRADER” (KYOWA KIRIN CO., LTD., priority 2019, published 2022):
pIC50: −log10 of the molar value. Like-named read-outs stand apart in the source and are kept apart here.

Tests used:
[1] = system: MYC mRNA expression in SU-DHL-4 cells; experiment: Suppressive effect on MYC mRNA expression (Test Example 2); type: cell-based, human; conditions: test compound 100 nmol/L, 6 hours, qRT-PCR corrected by ACTB, GAPDH; for Suppression Rate of MYC mRNA Expression (%): HPRT1; for inhibition at 0.1 µM: Homo sapiens, HPRT1, read-out: Suppression Rate of MYC mRNA Expression (%)
How it was run: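 SU-DHL-4 cells were treated for 6 h at 37 °C with compound (0.1% DMSO final). MYC mRNA was measured by TaqMan qRT-PCR and normalised to the geometric mean of ACTB, GAPDH and HPRT1. Suppression was calculated relative to untreated wells.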

SU-DHL-4 cells = experiment: Inhibitory effect on cell viability in SU-DHL-4 cell line (Test Example 1); type: cell-based, human; conditions: 72 hours; for pIC50: SU-DHL-4 (wild type) cells, calculated using the measurement results of test example 1, read-out: SU-DHL-4 WT IC50; for IC90: SU-DHL-4 cells, Cell Counting Kit-8, concentration showing 90% inhibition of cell viability, read-out: SU-DHL-4 Cell Viability Inhibition Rate IC90
How it was run: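 SU-DHL-4 cells were grown at 37° C. under 5% CO2 in RPMI1640 with 10 vol % heat-inactivated FBS plus penicillin/streptomycin, seeded and precultured for 18 to 25 hours, then exposed to test compound at 0.1 vol % DMSO for 72 hours. Viability was read with Cell Counting Kit-8 by absorbance at 450 nm.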

SMILES	pIC50 (SU-DHL-4 cells)	IC90 (SU-DHL-4 cells)	pIC50 (SU-DHL-4 cells; Homo sapiens)	IC90 (SU-DHL-4 cells; Homo sapiens)	Suppression Rate of MYC mRNA Expression (%) [1]	inhibition at 0.1 µM [1]
CCC(=O)N1c2ccccc2[C@H](Nc2ccc(NC(=O)CCCC(=O)Nc3ccc(Cn4c(C(=O)OCCN(C)C)cc5c4CCCC5=O)cc3)cc2)C[C@@H]1C [Compound 15a, 2-(Dimethylamino)ethyl 1-(4-(5-((4-(((2S,4R)-2-methyl-1-propionyl-1,2,3,4-tetrahydroquinolin-4-yl)amino)phenyl)amino)-5-oxopentanamide)benzyl)-4-oxo-4,5,6,7-tetrahydro-1H-indole-2-carboxylate]	9.55	0.34 nM			97.6%	
CCC(=O)N1c2ccccc2[C@H](Nc2ccc(-c3cnn(CCNC(=O)c4ccc(Cn5c(C(=O)OCCN(C)C)cc6c5CCCC6=O)cc4)c3)cc2)C[C@@H]1C [Compound 15d, 2-(Dimethylamino)ethyl 1-(4-((2-(4-(4-(((2S,4R)-2-methyl-1-propionyl-1,2,3,4-tetrahydroquinolin-4-yl)amino)phenyl)-1H-pyrazol-1-yl)ethyl)carbamoyl)benzyl)-4-oxo-4,5,6,7-tetrahydro-1H-indole-2-carboxylate]			9.96			96.9%
CCC(=O)N1c2ccccc2[C@H](Nc2ccc(-n3cc(CNC(=O)c4ccc(Cn5c(CC)cc6c5CCCC6=O)cc4)nn3)cc2)C[C@@H]1C [Compound 15f, 4-((2-Ethyl-4-oxo-4,5,6,7-tetrahydro-1H-indol-1-yl)methyl)-N-((1-(4-(((2S,4R)-2-methyl-1-propionyl-1,2,3,4-tetrahydroquinolin-4-yl)amino)phenyl)-1H-1,2,3-triazol-4-yl)methyl)benzamide]			10.52			97.2%
CCNC(=O)C[C@@H]1N=C(c2ccc(SCCCCSc3ccc(C4=N[C@@H](CC(=O)NCC)c5nnc(C)n5-c5ccc(OC)cc54)cc3)cc2)c2cc(OC)ccc2-n2c(C)nnc21 [compound 1, 2,2′-((4S,4'S)-6,6′-((butane-1,4-diylbis(sulfanediyl))bis(4,1-phenylene))bis(8-methoxy-1-methyl-4H-benzo[f][1,2,4]triazolo[4,3-a][1,4]diazepine-6,4-diyl))bis(N-ethylacetamide), reference compound]	6.66	2560 nM			61.7%	
Cc1sc2c(c1C)C(c1ccc(Cl)cc1)=N[C@@H](CC(=O)NCCOCCOCCOCCOCCOCCOCCOCCNC(=O)C[C@@H]1N=C(c3ccc(Cl)cc3)c3c(sc(C)c3C)-n3c(C)nnc31)c1nnc(C)n1-2 [compound 2, reference compound]	6.63	> 10000 nM			57.7%	

Continued, in another order:

pIC50 (SU-DHL-4 cells)	IC90 (SU-DHL-4 cells)	pIC50 (SU-DHL-4 cells; Homo sapiens)	IC90 (SU-DHL-4 cells; Homo sapiens)	SMILES	Suppression Rate of MYC mRNA Expression (%) [1]	inhibition at 0.1 µM [1]
9.30	3.09 nM			CCC(=O)N1c2ccccc2[C@H](Nc2ccc(NC(=O)CCCC(=O)Nc3cccc(Oc4ccc(NS(=O)(=O)CC)cc4-c4cn(C)c(=O)cc4OC)c3)cc2)C[C@@H]1C [Compound 16j, N^1-(3-(4-(Ethylsulfonamide)-2-(4-methoxy-1-methyl-6-oxo-1,6-dihydropyridin-3-yl)phenoxy)phenyl)-N5-(4-(((2S,4R)-2-methyl-1-propionyl-1,2,3,4-tetrahydroquinolin-4-yl)amino)phenyl)glutaramide]	92.4%	
		9.21	1.85 nM	CCC(=O)N1c2ccccc2[C@H](Nc2ccc(NC(=O)CCCC(=O)Nc3cccc(Oc4ccccc4-c4cn(C)c(=O)cc4OC)c3)cc2)C[C@@H]1C [Compound 16m, N^1-(3-(2-(4-Methoxy-1-methyl-6-oxo-1,6-dihydropyridin-3-yl)phenoxy)phenyl)-N5-(4-(((2S,4R)-2-methyl-1-propionyl-1,2,3,4-tetrahydroquinolin-4-yl)amino)phenyl)glutaramide]		97.1%
		7.60	80.3 nM	CCC(=O)N1c2ccccc2[C@H](Nc2ccc(NC(=O)CCCC(=O)Nc3ccc(C(=O)N4CCC(=O)Nc5ccccc54)cc3)cc2)C[C@@H]1C [Compound 16o, N^1-(4-(((2S,4R)-2-Methyl-1-propionyl-1,2,3,4-tetrahydroquinolin-4-yl)amino)phenyl)-N5-(4-(4-oxo-2,3,4,5-tetra hydro-1H-benzo[b][1,4]diazepine-1-carbonyl)phenyl)glutaramide]		79.1%
9.57	0.63 nM			CCC(=O)N1c2ccccc2[C@H](Nc2ccc(NC(=O)CCCC(=O)NC3CCC(Cn4cc(-c5c(C)noc5C)ccc4=O)CC3)cc2)C[C@@H]1C (stereo partly drawn) [Compound 16p, N^1-((1r,4r)-4-((5-(3,5-Dimethylisoxazol-4-yl)-2-oxopyridin-1(2H)-yl)methyl)cyclohexyl)-N5-(4-(((2S,4R)-2-methyl-1-propionyl-1,2,3,4-tetrahydroquinolin-4-yl)amino)phenyl)glutaramide]	96.2%	
		10.00	0.16 nM	CCC(=O)N1c2ccccc2[C@H](Nc2ccc(NC(=O)CCCC(=O)Nc3ccc(Cn4cc(-c5c(C)noc5C)ccc4=O)cc3)cc2)C[C@@H]1C [Compound 17a, N^1-(4-((5-(3,5-Dimethylisoxazol-4-yl)-2-oxopyridin-1(2H)-yl)methyl)phenyl)-N5-(4-(((2S,4R)-2-methyl-1-propionyl-1,2,3,4-tetrahydroquinolin-4-yl)amino)phenyl)glutaramide]		96.2%
